Where a SMILES comes first, the peptide text is derived from it.

`CC(=O)OC(C)(C)C1CCC2(C)CCCC3(CO3)C2C1` (centres undefined) showed a logP of 4.08.
Compound `Nc1cccc(Nc2ccccc2C(=O)O)c1` gave a logP of 2.99.
Under `CC(C)OC(=O)C(=Cc1ccccc1)S(=O)(=O)c1ccc([N+](=O)[O-])cc1` stands 3.62; under `O=C(O)CCCCON=C(c1ccccc1)c1cncnc1`, 2.65.
For `CC1(C)C2Cc3ssc(=S)c3C1C2` (centres undefined) the value was 3.7; for `Clc1cc(Cl)c2c(oc3c(Cl)ccc(Cl)c32)c1Cl`, 6.34; for `O=Cc1ccc(Cl)cc1O`, 2.49.
Under `CC(C)=CC1C(C(=O)OCc2cccc(I)c2)C1(C)C` (centres undefined) stands 6.61; under `CCCCCOCCCNc1[nH]cnc2ncnc1-2`, 2.74; under `Cc1cccc(C)c1-c1cnc[nH]1`, 2.38.
Turning to `Nc1nc(F)nc2c1ncn2[C@@H]1O[C@H](CO)[C@@H](O)[C@H]1O`, the log partition coefficient (logP) was -0.8.
For `NC(Cc1cc(I)c(OCCc2ccc(O)cc2)c(I)c1)C(=O)O` (centres undefined) the value was 2; for `CC1CCC(C)N1C(=O)Nc1ccccc1` (centres undefined), 2.33.
Under `O=C(Cc1ccccc1)OC1Cc2c(O)cc(O)cc2OC1c1ccc(O)c(O)c1` (centres undefined) stands 3.09; under `Cc1ccc(O)cc1N`, 1.16.
For `COC(=O)C(C)NP(=O)(OCC1C=CC(n2cc(C)c(=O)[nH]c2=O)O1)Oc1cccc(C(F)(F)F)c1` (centres undefined) the value was 1.57; for `O=[N+]([O-])c1cc(F)ccc1O`, 1.88.
`COc1ccc(C2Cc3cc(OCc4ccccc4)ccc3N(CCN(C)C)C(=O)C2OC(C)=O)cc1` (centres undefined) showed a lipophilicity (logP) of 5.4.
Under `C[N+](C)([O-])CCC(c1ccccc1)c1ccccc1` stands 1.1; under `COc1cc(NS(C)(=O)=O)ccc1-c1cn2cccnc2n1`, 0.72; under `COC(=O)C(C)=CC1C(C(=O)OCc2ccccc2)C1(C)C` (centres undefined), 4.4.
Under `CCCCCNCc1ccc(C)cc1` stands 4.26.
Consider `CCCCNc1ncnc2c1ncn2C1OC(CO)C(O)C1O` (centres undefined), for which the log partition coefficient (logP) came out at 1.1.
Under `CCC(C)C(NC(=O)CNC(=O)C1CCCN1C(=O)C(N)Cc1ccc(O)cc1)C(=O)O` (centres undefined) (H-YPGI-OH; configuration not given here) stands -1.65; under `O=C1c2cc(O)ccc2OCN1CCO[N+](=O)[O-]`, 1.63; under `C=CCN(N=O)C(=O)N(CCCC(NC(C)=O)C(=O)NCc1ccccc1)Cc1ccccc1` (centres undefined), 2.16.
Under `CC(=O)NC(CCCCN(Cc1ccccc1)C(=O)N(CCCl)N=O)C(=O)NCc1ccccc1` (centres undefined) stands 2.46.
`COCCOCCOCCOc1ccc(C2=NC(C)(C(=O)O)CS2)c(O)c1` (centres undefined) gave a logP of 1.3.
The compound `CCN(C(C)=O)c1cccc(-c2ccnc3c(C#N)cnn23)c1` showed a log partition coefficient (logP) of 1.23.
For `Clc1cc2c(c(Cl)c1Cl)Oc1c(Cl)ccc(Cl)c1O2` the value was 6.24; for `CCCc1nc(NCC)nc(N2CCCCC2)n1`, 3.34; for `COC(=O)c1c(Oc2nc(OC)cc(OC)n2)cccc1C(C)=NOCCCl`, 3.23.
In the case of `O=C1N=C(N2CCCCC2)CN1c1ccc(Cl)cc1`, the logP stood at 2.3.
For `N#CN=C1NCCN1Cc1cnccc1Cl` the value was 0.77; for `COC(=O)C(C)NP(=O)(OCC1C=CC(n2cc(C)c(=O)[nH]c2=O)O1)Oc1ccc(C)cc1` (centres undefined), 1.19.
For `CC(C)(O)C1CCC2(C)CCC3(CO3)C2C1` (centres undefined) the value was 2.9.
Under `COC(=O)C(C)NP(=O)(OCC1C=CC(n2cc(C)c(=O)[nH]c2=O)O1)Oc1ccc(C(C)=O)cc1` (centres undefined) stands 0.9.
For `CC(NCC(O)CON=C(C1CC1)C1CC1)c1ccccc1` (centres undefined), the lipophilicity (logP) amounted to 2.32.
Under `Nc1nc(Cl)nc2c1ncn2[C@H]1C[C@H](O)[C@@H](CO)O1` stands 0.02.
Compound `CN1CC(O)N(C(=O)NC2CCCCC2)C1=O` (centres undefined) came in with a logP of 1.87.
For `COC(=O)Nc1c(C)cccc1C` the value was 1.69; for `CC(N)C(=O)N1CCCC1C(=O)O` (centres undefined), -2.71.
In turn, `CC(=O)OCCCOC(=O)C(C)c1cccc(C(=O)c2ccccc2)c1` (centres undefined) came in with a logP of 3.6.
For `OCC1OC(n2cnc3c(NCc4ccco4)ncnc32)C(O)C1O` (centres undefined) the value was 0.52.
Consider `Cc1ncc([N+](=O)[O-])n1CCN=[N+]=[N-]`, for which the lipophilicity (logP) turned out to be 0.76.
Under `COc1ccc(CCNCC(O)COc2ccc(-c3nc(C)c[nH]3)cc2Br)cc1OC` (centres undefined) stands 3.8; under `CCC1C(=O)N(CCN(C)C)c2cccc(C(F)(F)F)c2CC1c1ccc(OC)cc1` (centres undefined), 6.3; under `Brc1cc(Br)c(N=C2NCCN2)c(Br)c1`, 2.54.
Under `CC(C)CC(NC(=O)C(N)Cc1ccccc1)C(=O)O` (stereo not drawn) (H-Phe-Leu-OH; configuration not given here) stands -1.17; under `Cc1ccc(CO)c(C=NNC(=O)c2cccc(Cl)c2)c1O`, 3.83; under `CC(=O)OC(C)(C)C1CCC2(C)CCCC(CO)C2C1` (centres undefined), 3.49.
For `O=C(O)C(c1ccc(-c2ccccc2)cc1)C(O)c1ccccc1` (centres undefined) the value was 3.6.
`CC1=C(C#N)C(C)(C)C(C#N)=C(C)N1` gave a logP of 2.47.
For the compound `NC(=O)Cc1c[nH]c2ccccc12`, the logP was determined as 0.75.
Under `Cc1cccc2c1OCN(CCO[N+](=O)[O-])C2=O` stands 2.48.
For `COC(=O)C(C)NP(=O)(OCC1C=CC(n2cc(C)c(=O)[nH]c2=O)O1)Oc1ccc([N+](=O)[O-])cc1` (centres undefined) the value was 0.9; for `O=C1N=C(N2CCOCC2)CN1Cc1ccccc1`, 0.5.
Under `CCC(C)Nc1nc(N)nc(Cl)n1` (centres undefined) stands 1.86; under `O=C(O)CCCON=C(c1ccccc1)c1ncccn1`, 1.64.
As for `CCN(CC)CCC(=O)Nc1ccc(N)cc1`, the logP was 0.8.
For `CCCCCOc1ccc(NC(=O)OCCN2CCCCC2)cc1` the value was 5.31.
Under `O=C(O)c1cc(O)c(Br)c(O)c1` stands 1.75; under `C#CC(C)(C)NCC(O)CON=C(C1CC1)C1CC1` (centres undefined), 1.6.
Compound `CN(C)C(c1ccccc1)c1ccccc1` came in with a log partition coefficient (logP) of 3.37.
For `Clc1cc2c(oc3c(Cl)c(Cl)ccc32)c(Cl)c1Cl` the value was 6.47.
For `COc1ccc(CCNCC(O)COc2ccc(-c3nc(C)c(Cl)[nH]3)cc2)cc1OC` (centres undefined) the value was 3.9.
For `CCCC1C(=O)N(CCN(C)C)c2cccc(C(F)(F)F)c2CC1c1ccc(OC)cc1` (centres undefined) the value was 6.9.
Compound `N#Cc1cccc(Cn2cccn2)c1` gave a lipophilicity (logP) of 1.74.
Compound `COc1cc2ncnc(Nc3ccccc3F)c2cc1OC` returned a log partition coefficient (logP) of 2.2.
Under `CCOC(=O)C1=C(C)NC(C)=C(C(=O)OC)C1c1cc(OC)c(OC)c(OC)c1` (centres undefined) stands 3.39; under `Nc1nc(N)c2c(Cl)cccc2n1`, 1.72; under `On1nnc2ccccc21`, 0.69.
In turn, `CNCc1ccc(C)cc1` yielded a logP of 1.96.
For `O=C1c2ccccc2-c2nnc(C(F)(F)F)cc21` the value was 2.21; for `Cc1cc2ccc3occc3c2oc1=O`, 2.57; for `CN1CCN(CCn2nc3ccccc3n2)CC1`, 0.74.
Under `COc1cc(-n2c(C(F)(F)F)nn(C)c2=S)cc(OC)c1OC` stands 2.04.
Under `CC(=NNC(=O)c1ccc(N)cc1)c1cnccn1` stands 1.3.
As to `ON=Cc1nc(-c2cccs2)no1`, the log partition coefficient (logP) amounted to 2.47.
`Nc1nc(NC2CC2)c2ncn([C@@H]3C=C[C@@H](CO)C3)c2n1` came in with a log partition coefficient (logP) of 1.22.
Under `CC(C)NC(=NC#N)NS(=O)(=O)c1cnccc1NC1CCCCCC1` stands 2.07; under `NC(=O)c1c(O)cccc1O`, 0.6; under `c1ccc2c(c1)OCC(C1=NCCN1)O2` (centres undefined), 1.63.
Under `C[N+](C)([O-])CCCc1ccccc1` stands -0.04; under `COC(=O)c1c(N2CCOCC2)c(-c2ccc(Cl)cc2)cn1C(C)=O`, 3.5.
For `CC(=O)OC(C)(C)C1CCC2(C)CCCC(=O)C2C1` (centres undefined) the value was 3.2; for `CC1=C2C3OC(=O)C(C)C3C(O)C(O)C2(C)C=CC1=O` (centres undefined), -0.7.
As to `COCCNc1[nH]cnc2ncnc1-2`, the logP is 0.42.
`CON(C)C(=O)Nc1ccc(NS(C)(=O)=O)cc1` had a logP of 0.14.
Under `CN1COCc2c1ccc1cc3ccc(N)c(CO)c3nc21` stands 1.64; under `CC(=O)OC1CC(OC2C(O)CC(OC3C(O)CC(OC4CCC5(C)C(CCC6C5CC(O)C5(C)C(C7=CC(=O)OC7)CCC65O)C4)OC3C)OC2C)OC(C)C1OC(C)=O` (centres undefined), 2.59; under `CC1CC2OC(=O)C(C)C2C(O)C2(C)C(=O)C=CC12` (centres undefined), 0.53.
`CC(C)NCC(O)COc1ccc(-c2ncc[nH]2)cc1` (centres undefined) yielded a lipophilicity (logP) of 1.4.
For `Cc1nc2ccccc2c(=O)n1CC(=O)O` the value was 0.38; for `C[C@@H]1CN(c2c(F)c(N)c3c(=O)c(C(=O)O)cn(C4CC4)c3c2F)C[C@H](C)N1`, -0.02; for `COc1ccc(C=C2C(=O)NC(=S)NC2=O)cc1`, 0.76.
For `O=C1N=C(N2CCOCC2)CN1c1ccc(Cl)c(Cl)c1` the value was 1.9.
For the compound `CCCOC(=O)c1cnc2n(c1=O)C(C)CCC2` (centres undefined), the lipophilicity (logP) worked out at 1.14.
Under `NC1=NC(C2OCCc3ccccc32)CS1` (centres undefined) stands 1.79.
On to `CCCCCCNC1=NS(=O)N=C1NCCSCc1ccc(CN(C)C)o1` (centres undefined), for which the logP came to 3.46.
Under `CCS(=O)(=O)n1cc(-c2ccc(Cl)cc2)c(N2CCOCC2)c1C(=O)OC` stands 4.2; under `COC(=O)NC(=O)Cn1c(C)nc2ccccc2c1=O`, 0.4; under `CCCN(CCCCC(NC(C)=O)C(=O)NCc1ccccc1)C(=O)NCCCl` (centres undefined), 1.13.
For `Nc1nc(O)nc(Nc2ccccc2)n1` the value was 1.9.
For `CON=C(C(=O)NC1C(=O)N2C(C(C)OC(=O)OC3CCCCC3)=CCSC12)c1csc(N)n1` (centres undefined) the value was 2.52.
Consider `Clc1ccc(-c2c[nH]cc2N2CCOCC2)cc1`, for which the logP was 3.2.
Under `CCOC(=O)C1=C(C)NC(C)=C(C(=O)OC)C1c1ccccc1OCOC` (centres undefined) stands 3.78; under `COC(=O)c1cccc(C)c1S(=O)(=O)NC(=O)Nc1nc(OCC(F)(F)F)nc(N(C)C)n1`, 3.56.
Compound `COc1cc(OC)c2c(c1)OC(c1ccc(OC)c(OC)c1)C(OC)C2` (centres undefined) gave a logP of 3.68.

Broadly, the logP is a log measure of how a compound divides between an organic and an aqueous phase. Higher therefore signals higher lipophilicity.
